According to US6262241A, “Compound for detecting and modulating RNA activity and gene expression” (Isis Pharmaceuticals, Inc., priority 1995, dated 2001):

Legend:
[1] = test system: Y STRAND 3'-GAG CAU GGY' AAG GCC AGG (SEQ ID NO: 7); format: binding
[2] = test system: nucleases; conditions: cited from earlier work

Compound	Tm, G-C [1] [C]	delta Tm, G-A [1] [C]	delta Tm, G-Bu [1] [C]	delta Tm, G-G [1]	delta Tm, G-T [1] [C]	nuclease resistance [2]
Nc1cc2c(ncn2[C@@H]2O[C@H](CO)[C@@H](O)[C@H]2O)c(=O)[nH]1 [3-deazaguanosine]	59	-2	-7	+1 C	-1	
poly(2'-chloro-2'-deoxycytidylic acid)						resistant to various nucleases
poly(2'-chloro-2'-deoxyuridylic acid)						resistant to various nucleases
